Laboratory results from PMC4259467, “Molecular Cloning, Characterization and Positively Selected Sites of the Glutathione S-Transferase Family from Locusta migratoria” (PLoS ONE, 2014).

Legend:
Assay in all cases: spectrophotometric GST assay, steady state
Assay type in all cases: biochemical
Settings in all cases: co-substrate GSH; pH and temperature not given; read-out: K m ^CDNB
LmGSTT1 = biological target: T1, LmGSTT1 (Locusta migratoria, UniProt F4YUJ7)
T1 construct: full-length ORF in pET28a, E. coli BL21(DE3), His-tag Ni-NTA purified
T1 sequence (F4YUJ7 1-231): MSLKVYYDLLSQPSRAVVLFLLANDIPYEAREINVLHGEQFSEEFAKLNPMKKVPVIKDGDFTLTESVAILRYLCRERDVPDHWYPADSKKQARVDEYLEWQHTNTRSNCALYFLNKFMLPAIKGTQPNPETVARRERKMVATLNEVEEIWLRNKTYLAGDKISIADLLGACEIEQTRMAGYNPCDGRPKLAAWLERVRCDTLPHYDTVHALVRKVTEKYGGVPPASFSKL
From the text: spectrophotometric GST assay, steady state on LmGSTT1

LmGSTD2 = biological target: T2, LmGSTD2 (Locusta migratoria, UniProt V9Q3Y3)
T2 construct: gene GSTd2; full-length ORF in pET28a, E. coli BL21(DE3), His-tag Ni-NTA purified
T2 sequence (V9Q3Y3 1-214): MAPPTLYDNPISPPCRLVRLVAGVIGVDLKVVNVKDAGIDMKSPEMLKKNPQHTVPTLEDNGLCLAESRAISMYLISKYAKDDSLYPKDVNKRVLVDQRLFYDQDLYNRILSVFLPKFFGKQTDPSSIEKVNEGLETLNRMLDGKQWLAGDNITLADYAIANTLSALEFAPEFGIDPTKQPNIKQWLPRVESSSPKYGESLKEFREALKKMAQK
From the text: spectrophotometric GST assay, steady state on LmGSTD2

LmGSTO3 = biological target: T3, LmGSTO3 (Locusta migratoria, UniProt V9Q2Q7)
T3 construct: gene GSTo3; full-length ORF in pET28a, E. coli BL21(DE3), His-tag Ni-NTA purified
T3 sequence (V9Q2Q7 1-241): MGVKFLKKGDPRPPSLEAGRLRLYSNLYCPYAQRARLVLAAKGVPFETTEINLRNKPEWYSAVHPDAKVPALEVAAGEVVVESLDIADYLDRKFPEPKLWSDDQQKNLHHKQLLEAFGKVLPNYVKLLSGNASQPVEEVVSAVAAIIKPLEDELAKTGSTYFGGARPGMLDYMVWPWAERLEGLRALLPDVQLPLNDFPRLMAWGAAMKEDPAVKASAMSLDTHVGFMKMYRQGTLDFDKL
From the text: spectrophotometric GST assay, steady state on LmGSTO3

LmGSTO2 = biological target: T4, LmGSTO2 (Locusta migratoria, UniProt I3QKS2)
T4 construct: gene GSTo2; full-length ORF in pET28a, E. coli BL21(DE3), His-tag Ni-NTA purified
T4 sequence (I3QKS2 1-245): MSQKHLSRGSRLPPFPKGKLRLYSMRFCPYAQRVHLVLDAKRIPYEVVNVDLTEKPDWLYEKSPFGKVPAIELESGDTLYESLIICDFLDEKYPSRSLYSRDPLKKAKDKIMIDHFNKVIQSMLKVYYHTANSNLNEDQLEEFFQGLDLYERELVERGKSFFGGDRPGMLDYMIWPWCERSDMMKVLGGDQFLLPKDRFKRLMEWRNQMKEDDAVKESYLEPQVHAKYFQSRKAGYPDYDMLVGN
From the text: spectrophotometric GST assay, steady state on LmGSTO2

LmGSTD5 = biological target: T5, LmGSTD5 (Locusta migratoria, UniProt V9Q4A2)
T5 construct: gene GSTd5; full-length ORF in pET28a, E. coli BL21(DE3), His-tag Ni-NTA purified
T5 sequence (V9Q4A2 1-224): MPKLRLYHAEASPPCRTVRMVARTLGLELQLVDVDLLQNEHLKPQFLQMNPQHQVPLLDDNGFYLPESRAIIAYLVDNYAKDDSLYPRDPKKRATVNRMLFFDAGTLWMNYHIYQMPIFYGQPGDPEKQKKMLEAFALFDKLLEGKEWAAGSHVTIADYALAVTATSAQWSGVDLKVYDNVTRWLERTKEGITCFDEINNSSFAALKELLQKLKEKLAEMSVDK
From the text: spectrophotometric GST assay, steady state on LmGSTD5

LmGSTZ1 = biological target: T6, LmGSTZ1 (Locusta migratoria, UniProt V9Q4A6)
T6 construct: gene GSTz1; full-length ORF in pET28a, E. coli BL21(DE3), His-tag Ni-NTA purified
T6 sequence (V9Q4A6 1-217): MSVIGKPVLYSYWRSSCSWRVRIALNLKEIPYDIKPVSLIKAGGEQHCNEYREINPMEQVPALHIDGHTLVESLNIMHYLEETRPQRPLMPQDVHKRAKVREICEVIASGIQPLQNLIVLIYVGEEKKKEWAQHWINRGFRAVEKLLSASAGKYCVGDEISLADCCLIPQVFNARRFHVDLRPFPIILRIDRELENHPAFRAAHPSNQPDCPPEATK
From the text: spectrophotometric GST assay, steady state on LmGSTZ1

LmGSTS5 = biological target: T7, LmGSTS5 (Locusta migratoria, UniProt F4YUJ4)
T7 construct: full-length ORF in pET28a, E. coli BL21(DE3), His-tag Ni-NTA purified
T7 sequence (F4YUJ4 1-202): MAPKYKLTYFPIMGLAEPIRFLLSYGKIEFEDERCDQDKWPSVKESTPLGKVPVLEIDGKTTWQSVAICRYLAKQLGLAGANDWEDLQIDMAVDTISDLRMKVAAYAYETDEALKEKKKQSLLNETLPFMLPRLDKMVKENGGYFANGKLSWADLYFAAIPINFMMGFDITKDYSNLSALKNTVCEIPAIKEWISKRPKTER
From the text: spectrophotometric GST assay, steady state on LmGSTS5

LmGSTD4 = biological target: T8, LmGSTD4 (Locusta migratoria, UniProt V9Q2Q3)
T8 construct: gene GSTd4; full-length ORF in pET28a, E. coli BL21(DE3), His-tag Ni-NTA purified
T8 sequence (V9Q2Q3 1-218): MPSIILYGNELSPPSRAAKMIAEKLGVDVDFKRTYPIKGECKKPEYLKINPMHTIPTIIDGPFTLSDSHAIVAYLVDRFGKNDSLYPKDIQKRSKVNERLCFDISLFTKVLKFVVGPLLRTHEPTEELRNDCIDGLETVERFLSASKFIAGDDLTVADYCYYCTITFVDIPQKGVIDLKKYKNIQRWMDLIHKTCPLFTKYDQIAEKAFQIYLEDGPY
From the text: spectrophotometric GST assay, steady state on LmGSTD4

For `O=[N+]([O-])c1ccc(Cl)c([N+](=O)[O-])c1` [CDNB], the Km (LmGSTT1) was 260 ± 14 µM, the Km (LmGSTD2) was 923 ± 49 µM and the Km (LmGSTO3) was 216 ± 4 µM. It also gave a Km (LmGSTO2) of 841 ± 138 µM, a Km (LmGSTD5) of 21 ± 1 µM and a Km (LmGSTZ1) of 452 ± 58 µM. For the same compound, the Km (LmGSTS5) was 253 ± 26 µM and the Km (LmGSTD4) was 15 ± 2 µM.
